The results in this text go back to a melting point compilation (Tetko et al.; mined from patent text by program, amines drawn as free bases though some values may be those of a salt).

In general, melting point refers to the temperature of the solid-liquid transition.

For the molecule `O=C(Nc1cccc(C(F)(F)F)c1F)c1ccccc1NCc1ccc(=O)[nH]c1`, the melting point fell in the range of 185 to 186 °C.

In the case of `CC(=O)c1cccc(-c2ncc(OCCCN(C)C)cn2)c1`, the melting point is 61 to 62 °C. The result for `COc1cc(C=O)cc(C#N)c1O` reads 180 °C; that for `CCC(COC)(OC)c1cncc(O)c1` (stereo not drawn), 87 to 88 °C. The result for `N#Cc1ccc(N2CC(CO)OC2=O)cc1` (stereo not drawn) reads 186 °C; that for `O=c1[nH]c(=S)nc2n1C(c1ccc(F)cc1)CO2` (stereo not drawn), 211 to 217 °C. `COc1ccc(CNC(=O)c2cnc(SC)nc2NC(C)C)cc1` displayed a melting point of 176 to 177 °C. For `NP(N)(=O)NC(=O)c1cccc([N+](=O)[O-])c1`, the melting point was in the range of 168 to 172 °C. The result for `O=C(Nc1ccc(Sc2c(O)c3c(Cl)cc(Cl)cc3[nH]c2=O)cc1)c1ccco1` reads 296 to 300 °C; that for `COc1ccc2[nH]cc(CCN3CCC(c4ccc(C)cc4)CC3)c2c1`, 131 to 133 °C; that for `C=CCS(=O)c1ncc(Cl)cn1` (stereo not drawn), 82 °C. With `N#Cc1cccnc1CC1COc2cc3c(cc2O1)OCC31C(=O)Cc2ccccc21` (stereo not drawn), the melting point lay in the range of 230 to 233 °C.

For the molecule `Cc1nc2cc(S(=O)(=O)n3c(CCC(=O)O)cc4cc(C(F)(F)F)ccc43)ccc2s1`, the melting point was in the range of 235 to 236 °C. The value for `CCOc1ccc2cc(N3CC(COC)OC3=O)ccc2c1` (stereo not drawn) was 130 °C; that for `C=C(CC(=O)Nc1cc(Cl)cc(Cl)c1)C(=O)O` was 185 °C. The value for `CCOC(=O)Cc1sc(Sc2nccc(C)c2C(=O)OCC)nc1C` was 85 to 87 °C; that for `COc1ccc(CNC(=O)c2cccnc2N)cc1` was 165 to 166 °C; that for `CN1CCCCC1CNC(=O)Nc1cc(N2CC(c3ccccc3)CC2=O)ccn1` (stereo not drawn) was 144 to 146 °C. The result for `CS(=O)(=O)N(Cc1cccnc1)c1ccc(O)cc1` reads 208 to 210 °C; that for `CC(C)(CCl)C(=O)N(O)Cc1ccccc1Cl`, 108 to 110 °C; that for `OC(CCN1CCN(c2ccccc2)CC1)COc1cccc(C(F)(F)F)c1` (stereo not drawn), 73 to 74 °C. `Cc1ccc(-c2ccc3c(c2)C=C(C(CN(C)C2CCOCC2)Oc2ccccc2)CCO3)cc1` (stereo not drawn) yielded a melting point of 135 to 136 °C. The result for `CC(C)C(=O)[C@H]1CCn2c(cc3ccccc32)C1` reads 78 to 79 °C; that for `CCC(=O)NCC[C@@H]1CCc2cc(Br)c3c(c21)CCO3`, 129 to 131 °C; that for `CC1=C(C(=O)OC(C)C)C(c2ccc(F)cc2Cl)N=C(c2c(F)cccc2F)N1` (stereo not drawn), 155 to 158 °C. The result for `O=C(O)Cc1cc(=O)n(Cc2ccc(Cl)cc2)c2ccccc12` reads 208 to 209 °C.

As to `O=C(CCCc1ccccc1)c1cc(O)c(O)c([N+](=O)[O-])c1`, the melting point is 118 to 119 °C. The value for `CC(C)=CC(=O)NCC1Cc2ccc(-c3ccc(=O)[nH]n3)cc2C1` (stereo not drawn) was 204 to 205 °C. The value for `CCOC(=O)C=Cc1ccc(NC(=O)Nc2cccnc2)cc1` was 188 to 189 °C; that for `CCCCCc1ccc(C(=O)Nc2ccc(-n3nc(C(F)(F)F)cc3C(F)(F)F)cc2)c(=O)o1` was 140 to 141 °C. The value for `O=C(NCC12CC3CC(CC(C3)C1)C2)c1cc(-c2nccnc2N2CCC(C(=O)O)CC2)ccc1Cl` was 136 to 140 °C; that for `CN1N=C2C(=Cc3ccccc3)CN(C(=O)CCl)CC2C1c1ccccc1` (stereo not drawn) was 88 to 90 °C. For `COCC1CN(c2ccc(C3CC4C=CC3C4)cc2)C(=O)O1` (racemic), the melting point lay in the range of 46 to 48 °C. The result for `CCCCCCCCCCCCOc1cc(N)c(OCCCCCCCCCCCC)cc1N` reads 75 to 76 °C. In the case of `CCN(CC)C(=O)n1cc(F)c(=O)[nH]c1=O`, the melting point is 157 to 160 °C. In turn, `NC(=O)N(O)C1C=C(c2cccc(Oc3ccccc3)c2)CC1` (single isomer, unassigned; (+)) yielded a melting point of 139 to 141 °C. The value for `CC(C)[C@H](NC(=O)OCc1ccccc1)C(=O)NCCCNC(=O)[C@@H](NC(=O)OCc1ccccc1)C(C)C` was 211 to 212 °C; that for `CC(=O)Nc1cc(CN(C)C)c2ncc(C#N)c(Nc3cccc(Br)c3)c2c1` was 162 to 167 °C; that for `CCCN(CCC)C(=O)Cn1c(-c2ccc(Cl)cc2)nc2ccc(Cl)nc21` was 170 to 174 °C. The result for `CC(C)Cn1c(CCCCNC(=O)N2CCOCC2)nc2c(N)nc3ccccc3c21` reads 97 to 100 °C; that for `Cc1nc(C(=O)NC2CC2)c2n1-c1ccc(Cl)cc1C(c1ccccc1F)=NC2`, 196 to 197 °C; that for `Cc1ccsc1C(Cc1ccccc1O)N(C)C=O` (stereo not drawn), 142 to 144 °C. The value for `Cc1csc(C2=CCN(CCCC(O)c3ccc(F)cc3)CC2)n1` (stereo not drawn) was 89 to 90.5 °C. `C=CCn1c(C)c(C)c2cnnc(OCc3ccc(C(F)(F)F)cc3)c21`: the melting point was 95 to 96 °C. In the case of `CN(c1cnc(-c2ccccc2)c(-c2ccccc2)n1)C1CCc2c(OCC(=O)O)cccc21` (stereo not drawn), the melting point fell in the range of 182 to 184 °C. The value for `CC(C)(C)COC1CCC(=O)N1` (stereo not drawn) was 45 °C; that for `CCCCNC(=O)Oc1ccccc1` was 39 to 40 °C. The value for `CCCCCCCCCCCCCCCCOc1ccccc1-c1ccccc1` was 35 to 37 °C; that for `CCOC(=O)c1ccc(-c2ccc(OC)c(-c3cccc([N+](=O)[O-])c3)c2)cc1` was 106 to 108 °C; that for `CN1NN=C(c2ccc3c(c2)S(=O)(=O)c2ccccc2C3=O)N1` was 204 to 205 °C.

`CCOC(=O)c1cc2c(C)ccc(NS(=O)(=O)c3cccs3)c2[nH]1` registered a melting point of 180 to 181 °C. The value for `c1ccc(C2(Oc3ccccn3)CCNCC2)cc1` was 86 to 87 °C; that for `CC1(C)CC(c2ccccc2)Nc2c(C(=O)O)cnn21` (single isomer, unassigned; (-)) was 205 to 206 °C. The result for `C=CCCCCCCOc1ccc(C(CC(C(=O)OCC)C(=O)OCC)NC(C)=O)cc1` (stereo not drawn) reads 50 to 53 °C; that for `CC(C)c1ccccc1N=C1NCCS1`, 76 to 77 °C.

Turning to `CCCN1N=C2C(=Cc3ccccc3)CS(=O)(=O)CC2C1c1ccccc1` (stereo not drawn), the melting point is 197 to 199 °C. `CS(=O)(=O)c1cc(C(N)Nc2ccccc2C(=O)Nc2cccc(C(F)(F)F)c2)ccn1` (stereo not drawn) showed a melting point of 214 °C. The result for `CCOC(=O)C(C)Oc1ncn(-c2cccc(C(F)(F)F)c2)n1` (stereo not drawn) reads 100 to 102 °C.

For the molecule `COc1cc2cc(C(=O)N3CC(CCl)c4c3cc(OCc3ccccc3)c3ncccc43)[nH]c2c(OC)c1OC` (stereo not drawn), the melting point lay in the range of 182 to 184 °C. The value for `CC(C)(C)OC(=O)Nc1ccc(-c2c[nH]c(=O)cn2)cc1` was 267 to 269 °C. The value for `CCN1CCN(CCCC#Cc2cn(Cc3ncc(C)c(OC)c3C)c3nc(N)nc(Cl)c23)CC1` was 142 to 144 °C.

`N#Cn1c(-c2ccc(Cl)cc2)c([N+](=O)[O-])c(-c2ccc(Cl)c(Cl)c2)c1C(F)(F)F` displayed a melting point of 98 to 100 °C.

`CC(=O)n1c(=O)n(CCN2CCC(C(=O)c3ccc(F)cc3)CC2)c(=O)c2ccsc21` had a melting point of 137 to 141 °C.
